Laboratory results: ChEMBL document CHEMBL1201862, “PubChem BioAssay data set” (2004)
The source made the active and inactive calls.

Columns and labels:
[1] = test system: Streptococcus sp. 'group A'; assay: growth inhibition of control SK(-) GAS strain, dose response, counter-screen for streptokinase expression inhibitor project, luminescence, kanamycin, BacTiterGlo, confirmation (AID 1900); format: functional, organism-based
[2] = Vero E6 cell cytotoxicity, dose response, cytotoxicity control for non-replicating M. tuberculosis project, secondary assay (AID 492998); format: functional, VeroE6; conditions: Vero C1008
[3] = cytotoxicity in KRAS-transformed pancreatic duct cells, primary screen, cell-based, fluorescence, HTS (AID 431); format: functional; conditions: Homo sapiens;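 further: cell line used: HPDE-C7K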
[4] = microbe, parasite or virus in culture; format: functional; conditions: Mycobacterium tuberculosis
cells = format: functional
[5] = target: T1, Sphingosine 1-phosphate receptor 4 (Homo sapiens, UniProt O95977); assay: Fluorescence dose response cell-based high throughput screening assay for antagonists of the Sphingosine 1-Phosphate Receptor 4 (S1P4). [Related pubchem assays: 1524 (Confirmation in triplicates.), 1510 (Primary screen.)]; format: functional
T1 sequence (O95977 whole entry): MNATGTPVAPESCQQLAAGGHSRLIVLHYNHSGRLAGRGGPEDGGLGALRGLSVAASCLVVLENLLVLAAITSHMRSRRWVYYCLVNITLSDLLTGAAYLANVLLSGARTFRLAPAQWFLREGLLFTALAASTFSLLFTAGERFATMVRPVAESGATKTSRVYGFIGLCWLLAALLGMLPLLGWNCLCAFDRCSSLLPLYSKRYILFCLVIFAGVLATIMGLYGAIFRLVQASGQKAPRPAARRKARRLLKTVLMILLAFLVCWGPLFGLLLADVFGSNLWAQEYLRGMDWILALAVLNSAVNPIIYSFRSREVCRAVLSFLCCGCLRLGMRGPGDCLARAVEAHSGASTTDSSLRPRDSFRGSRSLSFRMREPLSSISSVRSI

[6] = growth suppression of PTEN-null colon cells, dose response, cell-based, HCT116 PTEN knockout (AID 1047); format: functional;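 further: HCT116 colon tumor cells with PTEN knocked out; cells exposed to compound for 60 hours before readout; potency for loss of cell viability measured by luminescence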
[7] = cytotoxicity in HPDE-C7 cells, cell-based, fluorescence, HTS (AID 430); format: functional; conditions: Homo sapiens
[8] = target: Sphingosine 1-phosphate receptor 1 (Homo sapiens, UniProt P21453); format: functional;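 further: Tango beta-arrestin reporter U2OS cells stimulated with S1P near its EC80; inhibitor potency meaning antagonism of receptor activation by the natural agonist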
[9] = target: T2, Heat shock factor protein 1 (Mus musculus, UniProt P38532); assay: HSF1 potentiators in luciferase reporter cells, confirmation, cell-based, NIH3T3, luminescence, dose retest (AID 435004); format: functional;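 further: stress induced by proteasome inhibitor MG132 added 30 min after compound; luciferase reporter driven by HSF1 response element in NIH3T3 cells; actives raise luminescence as potentiators of the MG132 stress response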
T2 sequence (P38532 whole entry): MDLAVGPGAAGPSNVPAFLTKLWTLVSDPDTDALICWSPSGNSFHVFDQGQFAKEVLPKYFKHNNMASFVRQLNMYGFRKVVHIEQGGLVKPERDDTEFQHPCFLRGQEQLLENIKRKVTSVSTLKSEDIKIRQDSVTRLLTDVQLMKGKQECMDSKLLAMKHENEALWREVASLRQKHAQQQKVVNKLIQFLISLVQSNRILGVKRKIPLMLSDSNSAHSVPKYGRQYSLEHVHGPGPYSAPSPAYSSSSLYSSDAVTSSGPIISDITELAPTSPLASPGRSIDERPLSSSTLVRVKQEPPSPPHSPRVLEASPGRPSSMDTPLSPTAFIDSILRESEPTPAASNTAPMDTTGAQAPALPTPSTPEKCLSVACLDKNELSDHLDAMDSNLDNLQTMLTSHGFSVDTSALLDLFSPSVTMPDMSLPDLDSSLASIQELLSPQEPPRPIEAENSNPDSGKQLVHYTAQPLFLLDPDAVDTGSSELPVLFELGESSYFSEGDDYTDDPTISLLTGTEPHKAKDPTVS

[10] = THP-1 cell cytotoxicity, dose response, cytotoxicity control for non-replicating M. tuberculosis project (AID 489025); format: functional
[11] = Shn3 3'UTR reporter inhibitors, dose response, cell-based, Clone20 osteoblasts, firefly luciferase, cherry-picked (AID 624132); format: functional;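 further: firefly luciferase luminescence from reporter carrying the Shn3 3'UTR in osteoblasts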
[12] = growth suppression of beta-catenin-knockout colon cells, dose response, cell-based, HCT116, human colon tumor (AID 1045); format: functional;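 further: HCT116 colon tumor cells with beta catenin knocked out; cells exposed to compound for 60 hours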
Streptococcus = assay: Group A Streptococcus viability loss, dose response, counter-screen for streptokinase expression inhibitor project, luminescence, BacTiterGlo (AID 1915); format: functional, organism-based;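 further: potency for reduction of bacterial viability or growth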
[13] = HepG2 cell cytotoxicity, dose response, cytotoxicity control for non-replicating M. tuberculosis project (AID 489018); format: functional; conditions: Mycobacterium tuberculosis
[14] = HepG2 cell cytotoxicity, dose response, cytotoxicity control for Shn3 inhibitor project, CellTiter-Glo, cherry-picked (AID 624134); format: functional, cell-based
[15] = enhancers of respiration in Yfh1-depleted yeast, dose response, Friedreich's ataxia, plus single-dose screen (AID 1465); format: functional;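 further: yeast depleted of Yfh1p frataxin homolog grown on glycerol needing respiration; WST-1 tetrazolium dye reduction as measure of cellular dehydrogenase metabolic activity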
[16] = target: Serine/threonine-protein phosphatase PP1-alpha catalytic subunit (Homo sapiens, UniProt P62136); assay: PP1 phosphatase inhibitors, dose response, biochemical, fluorescence (AID 2403);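 further: phosphatase turnover of OMFP into fluorescent 3-O-methylfluorescein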
[17] = target: Serine/threonine-protein phosphatase (Homo sapiens, UniProt Q9BPW0); assay: Counterscreen for inhibitors of PP1: fluorescence-based biochemical high throughput dose response assay to identify inhibitors of Protein Phosphatase 5 (PP5). [Related pubchem assays: 2034 (Summary (PP5 inhibitors)), 1987 (PP5 inhibitors in singlate), 2235 (PP1 inhibitors in singlate)]
Vasopressin V1a receptor = Vasopressin V1a receptor (Homo sapiens, UniProt P37288); assay: Counterscreen for Oxytocin Receptor (OXTR) agonists: Fluorescence-based cell-based high throughput dose response assay to identify agonists of the vasopressin 1 receptor (V1R). [Related pubchem assays: 2435 (Primary screen (OXTR agonists in singlicate)), 434991 (Counterscreen (V1R agonists in triplicate)), 2482 (Summary (OXTR agonists)) …; format: functional
Oxytocin receptor = Oxytocin receptor (Homo sapiens, UniProt P30559); assay: Fluorescence-based cell-based high throughput dose response assay for agonists of the Oxytocin Receptor (OXTR). [Related pubchem assays: 2435 (Primary screen (OXTR agonists in singlicate)), 434991 (Counterscreen (V1R agonists in triplicate)), 2482 (Summary (OXTR agonists)), 434963 (Confirmation screen (OXTR agonists in triplicate))]; format: functional
[18] = target: Voltage-gated inwardly rectifying potassium channel KCNH2 (Homo sapiens, UniProt Q12809); conditions: Potency;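 further: confirmatory quantitative high-throughput screen measuring inhibition of hERG channel activity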
Cytochrome P450 2D6 [19] = target: T3, Cytochrome P450 2D6 (Homo sapiens, UniProt P10635); assay: qHTS Assay for Inhibitors and Substrates of Cytochrome P450 2D6. [Related pubchem assays: 410 ]; format: ADME; conditions: read-out: Potency
Cytochrome P450 2C19 = Cytochrome P450 2C19 (Homo sapiens, UniProt P33261); assay: Cytochrome panel assay with activity outcomes. Panel member name: p450-cyp2c19 Compounds with AC50 equal or less than 10 uM are considered active; format: functional; conditions: read-out: AC50
Cytochrome P450 2D6 [20] = target: T3, Cytochrome P450 2D6

T3 sequence (P10635 whole entry): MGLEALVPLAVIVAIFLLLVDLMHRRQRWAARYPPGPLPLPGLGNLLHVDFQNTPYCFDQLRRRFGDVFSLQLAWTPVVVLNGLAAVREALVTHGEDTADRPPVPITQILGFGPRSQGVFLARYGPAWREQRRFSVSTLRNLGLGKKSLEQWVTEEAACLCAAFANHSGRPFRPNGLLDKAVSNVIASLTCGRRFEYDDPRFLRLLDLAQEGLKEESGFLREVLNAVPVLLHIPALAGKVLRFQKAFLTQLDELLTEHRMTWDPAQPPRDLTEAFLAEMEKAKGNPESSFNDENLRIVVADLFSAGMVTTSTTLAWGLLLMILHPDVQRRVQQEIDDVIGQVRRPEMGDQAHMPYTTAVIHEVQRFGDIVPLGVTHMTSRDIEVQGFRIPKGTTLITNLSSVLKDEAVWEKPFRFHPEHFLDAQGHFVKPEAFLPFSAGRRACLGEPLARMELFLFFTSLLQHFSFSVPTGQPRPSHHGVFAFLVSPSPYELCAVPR
Sphingosine 1-phosphate receptor 1, sequence (P21453 whole entry): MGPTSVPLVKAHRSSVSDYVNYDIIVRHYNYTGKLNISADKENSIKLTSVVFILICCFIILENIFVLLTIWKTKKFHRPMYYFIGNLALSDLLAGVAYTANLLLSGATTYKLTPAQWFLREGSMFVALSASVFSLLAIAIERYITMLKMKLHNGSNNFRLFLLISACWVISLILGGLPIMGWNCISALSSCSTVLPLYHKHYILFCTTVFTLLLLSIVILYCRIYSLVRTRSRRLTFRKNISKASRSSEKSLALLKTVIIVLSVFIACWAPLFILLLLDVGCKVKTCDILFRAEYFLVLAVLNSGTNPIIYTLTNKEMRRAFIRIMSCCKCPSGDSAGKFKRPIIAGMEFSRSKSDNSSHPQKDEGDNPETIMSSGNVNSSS
Serine/threonine-protein phosphatase PP1-alpha catalytic subunit, sequence (P62136 whole entry): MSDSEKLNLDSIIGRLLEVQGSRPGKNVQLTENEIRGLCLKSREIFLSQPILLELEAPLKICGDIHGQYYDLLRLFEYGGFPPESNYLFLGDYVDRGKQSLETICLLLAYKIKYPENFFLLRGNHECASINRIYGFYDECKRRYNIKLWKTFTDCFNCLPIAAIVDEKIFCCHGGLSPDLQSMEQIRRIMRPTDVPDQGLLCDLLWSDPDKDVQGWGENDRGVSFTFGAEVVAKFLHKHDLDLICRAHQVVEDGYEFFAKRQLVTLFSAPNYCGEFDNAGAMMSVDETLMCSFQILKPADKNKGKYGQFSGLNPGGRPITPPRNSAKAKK
Serine/threonine-protein phosphatase, sequence (Q9BPW0 whole entry): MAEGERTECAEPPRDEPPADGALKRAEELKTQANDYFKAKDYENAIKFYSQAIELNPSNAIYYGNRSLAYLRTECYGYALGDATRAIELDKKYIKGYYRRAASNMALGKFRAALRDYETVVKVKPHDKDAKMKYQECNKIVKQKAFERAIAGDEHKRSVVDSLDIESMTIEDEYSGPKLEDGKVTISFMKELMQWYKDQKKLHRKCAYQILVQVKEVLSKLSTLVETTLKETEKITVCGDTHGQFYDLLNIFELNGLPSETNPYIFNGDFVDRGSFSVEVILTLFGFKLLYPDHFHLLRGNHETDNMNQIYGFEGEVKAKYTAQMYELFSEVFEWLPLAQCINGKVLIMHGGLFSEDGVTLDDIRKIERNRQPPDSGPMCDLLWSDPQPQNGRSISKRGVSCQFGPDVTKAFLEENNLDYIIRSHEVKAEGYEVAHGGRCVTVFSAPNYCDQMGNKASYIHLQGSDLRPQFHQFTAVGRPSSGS
Cytochrome P450 2C19, sequence (P33261 whole entry): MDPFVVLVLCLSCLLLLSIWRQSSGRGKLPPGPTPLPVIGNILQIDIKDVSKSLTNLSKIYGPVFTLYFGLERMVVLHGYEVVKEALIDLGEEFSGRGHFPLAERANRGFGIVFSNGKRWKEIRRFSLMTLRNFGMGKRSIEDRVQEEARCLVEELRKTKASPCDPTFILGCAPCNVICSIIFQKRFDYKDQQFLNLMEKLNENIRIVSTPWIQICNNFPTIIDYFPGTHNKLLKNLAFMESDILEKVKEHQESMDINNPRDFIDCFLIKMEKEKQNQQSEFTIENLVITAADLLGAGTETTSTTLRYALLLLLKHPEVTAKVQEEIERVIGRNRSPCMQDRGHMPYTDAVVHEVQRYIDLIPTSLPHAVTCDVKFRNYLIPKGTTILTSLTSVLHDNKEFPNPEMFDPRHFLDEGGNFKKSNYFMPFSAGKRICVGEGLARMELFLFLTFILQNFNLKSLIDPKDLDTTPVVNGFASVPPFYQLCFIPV
Voltage-gated inwardly rectifying potassium channel KCNH2, sequence (Q12809 whole entry): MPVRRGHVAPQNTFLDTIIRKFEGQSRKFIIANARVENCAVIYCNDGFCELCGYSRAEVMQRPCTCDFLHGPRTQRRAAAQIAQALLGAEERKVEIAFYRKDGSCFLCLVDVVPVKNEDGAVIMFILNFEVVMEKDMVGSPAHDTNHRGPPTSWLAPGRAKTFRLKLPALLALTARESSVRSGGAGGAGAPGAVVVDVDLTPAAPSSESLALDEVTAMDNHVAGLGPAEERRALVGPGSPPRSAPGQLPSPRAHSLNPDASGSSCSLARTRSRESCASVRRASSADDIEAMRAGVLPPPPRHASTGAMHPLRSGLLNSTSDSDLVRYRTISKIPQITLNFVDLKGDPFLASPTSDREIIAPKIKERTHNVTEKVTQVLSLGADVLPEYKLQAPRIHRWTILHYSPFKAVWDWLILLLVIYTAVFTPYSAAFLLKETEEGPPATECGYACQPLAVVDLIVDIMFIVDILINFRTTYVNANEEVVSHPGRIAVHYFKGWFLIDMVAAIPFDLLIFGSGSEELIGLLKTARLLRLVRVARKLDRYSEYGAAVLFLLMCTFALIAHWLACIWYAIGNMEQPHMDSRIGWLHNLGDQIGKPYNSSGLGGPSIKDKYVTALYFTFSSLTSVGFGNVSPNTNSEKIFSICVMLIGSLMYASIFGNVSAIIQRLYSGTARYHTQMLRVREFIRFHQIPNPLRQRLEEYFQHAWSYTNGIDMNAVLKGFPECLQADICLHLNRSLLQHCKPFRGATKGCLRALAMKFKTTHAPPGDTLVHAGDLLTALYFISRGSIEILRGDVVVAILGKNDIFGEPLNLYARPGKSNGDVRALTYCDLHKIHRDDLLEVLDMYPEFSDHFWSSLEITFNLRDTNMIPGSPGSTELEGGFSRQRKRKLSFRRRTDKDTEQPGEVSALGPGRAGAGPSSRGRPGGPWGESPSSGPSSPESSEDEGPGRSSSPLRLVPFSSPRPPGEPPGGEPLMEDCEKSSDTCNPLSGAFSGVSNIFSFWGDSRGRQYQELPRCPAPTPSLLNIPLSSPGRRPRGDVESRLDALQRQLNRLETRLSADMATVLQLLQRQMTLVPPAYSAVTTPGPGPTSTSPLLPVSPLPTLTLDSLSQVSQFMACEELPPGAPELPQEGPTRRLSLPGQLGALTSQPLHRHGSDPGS
Oxytocin receptor, sequence (P30559 whole entry): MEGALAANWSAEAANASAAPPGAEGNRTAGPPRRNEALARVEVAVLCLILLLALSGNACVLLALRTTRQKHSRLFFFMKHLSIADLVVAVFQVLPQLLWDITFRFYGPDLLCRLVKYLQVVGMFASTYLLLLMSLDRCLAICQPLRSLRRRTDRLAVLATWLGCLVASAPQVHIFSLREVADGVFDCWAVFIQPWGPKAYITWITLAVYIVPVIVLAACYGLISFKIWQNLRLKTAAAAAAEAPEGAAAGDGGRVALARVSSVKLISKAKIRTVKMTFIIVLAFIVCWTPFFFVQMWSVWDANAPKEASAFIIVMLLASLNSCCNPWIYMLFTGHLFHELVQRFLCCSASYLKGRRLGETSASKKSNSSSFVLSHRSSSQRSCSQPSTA
Vasopressin V1a receptor, sequence (P37288 whole entry): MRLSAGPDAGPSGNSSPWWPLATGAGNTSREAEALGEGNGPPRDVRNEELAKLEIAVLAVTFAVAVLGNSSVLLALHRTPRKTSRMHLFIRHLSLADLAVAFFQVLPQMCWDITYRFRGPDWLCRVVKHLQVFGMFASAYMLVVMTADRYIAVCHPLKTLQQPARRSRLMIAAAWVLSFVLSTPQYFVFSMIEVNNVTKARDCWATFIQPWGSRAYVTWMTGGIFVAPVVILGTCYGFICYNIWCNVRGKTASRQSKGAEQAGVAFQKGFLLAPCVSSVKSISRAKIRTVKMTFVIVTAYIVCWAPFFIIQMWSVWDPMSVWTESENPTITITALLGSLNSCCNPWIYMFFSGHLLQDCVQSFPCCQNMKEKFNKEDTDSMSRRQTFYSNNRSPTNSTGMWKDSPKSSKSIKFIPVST

SMILES: Cc1ccc(S(=O)(=O)Nc2cccc3ncccc23)s1
- EC50 [1]: 1.78 µM (active)
- CC50 [2]: 4.2 µM (active)
- EC50 [3]: 10.3 µM (active)
- CC50 [4]: 6.47 µM (active)
- IC50 (cells): 2.01 µM (active)
- IC50 [5]: 0.611 µM (active)
- EC50 [6]: 1.73 µM (active)
- EC50 [7]: 11.3 µM (active)
- IC50 [8]: 1.19 µM (active)
- EC50 [9]: 3.91 µM (active)
- CC50 [10]: 6.44 µM (active)
- AC50 [11]: 3.85 µM (active)
- EC50 [12]: 1.46 µM (active)
- EC50 (Streptococcus): 10.1 µM (active)
- CC50 [13]: 6.97 µM (active)
- AC50 [14]: 9.75 µM (active)

SMILES: CCOC(=O)/C(C#N)=C/C=C1/C=CC=CN1C
- EC50 [15]: > 100 µM (active)

SMILES: Cc1ccc(-n2nc(C(=O)O)cc2-c2ccc(Cl)cc2)cc1
- IC50 [16]: 9.65 µM (active)
- IC50 [17]: > 67 µM (not active)

SMILES: CC(Oc1ccc(F)cc1)C(=O)Nc1ccc(S(=O)(=O)NC2=NCCCCC2)cc1 (stereo not given)
- EC50 (Vasopressin V1a receptor): > 29.9 µM (not active)
- EC50 (Oxytocin receptor): > 29.9 µM (not active)

SMILES: O=C(CCc1ccc(O)cc1)c1c(O)cc(O)cc1O [PHLORETIN]
- AC50 [18]: 12.6 µM (inconclusive)
- AC50 (Cytochrome P450 2D6 [19]): 25.1 µM (inconclusive)
- AC50 (Cytochrome P450 2C19): 20 µM (inconclusive)
- AC50 (Cytochrome P450 2D6 [20]): 39.8 µM (inconclusive)
